In patent publication US20220387393A1, “METHODS FOR THE TREATMENT OF DYSMYELINATING/DEMYELINATING DISEASES” (Board of Regents, The University of Texas System, priority 2019, published 2022):

What was measured:
[1] = system: corpus callosum (CC) myelin of mouse brains; format: in vivo; conditions: for delayed-onset demyelination and myelin lipid reduction in the CC: 6 months, but not 4 months, after chemotherapy cessation
Source text: (§1) FIGS. 4A-4C. […] (FIG. 4A) Quantitative FluoroMyelin staining of the corpus callosum (CC) in 4-month and 6-month mouse brains treated with 5-FU, saline and/or KD3010. (FIG. 4B) Quantitative immunofluorescent staining of oligodendrocyte lineage marker Olig2 in the CC of 6-month mouse brains treated with 5-FU or saline.

[2] = system: corpus callosum (CC) myelin of mouse brains; conditions: 6 months after a clinically relevant dose for 1 week; cited from earlier work
[3] = system: demyelination induced by 5-FU; assay: 5-FU (chemotherapy)-induced demyelination in mice, treatment with agonist; format: in vivo; conditions: FluoroMyelin staining of corpus callosum, mouse brains treated with 5-FU
Source text: as §1

[4] = Dickey et al., 2016; cited from earlier work
Qk-iCKO mice = assay: Qki depletion-induced demyelination in Qk-iCKO mice, daily oral administration; format: in vivo; conditions: for Qk-iCKO mice that lived for more than 100 days: 3 of 13 treated Qk-iCKO mice; for maximum survival duration increased / clinical scores / onset of neurological deficits / prolonged median survival times / body weights: Qk-iCKO mice; for maximum survival duration increased: compared to controls; for clinical scores / onset of neurological deficits / prolonged median survival times / body weights: oral administration, compared to vehicle; for body weights: 4 weeks after tamoxifen injection; for higher myelin lipid levels (FluoroMyelin) than vehicle-treated Qk-iCKO mice: corpus callosum; for higher myelin lipid levels (FluoroMyelin) than vehicle-treated Qk-iCKO mice / myelin sheaths (g-ratio) / more myelinated axons than vehicle-treated Qk-iCKO mice: after 5 weeks of treatment; for myelin sheaths (g-ratio) / more myelinated axons than vehicle-treated Qk-iCKO mice: optic nerves; for myelin sheaths (g-ratio): versus vehicle; for more myelinated axons than vehicle-treated Qk-iCKO mice: electron micrographs
Source text: FIGS. 2A-2J. […] In FIG. 2A, the four groups within each week represent, from left to right, Ctrl (Veh), iCKO (Veh), Ctrl (KD3010), and iCKO (KD3010). In FIG. 2D, the four groups within each week represent, from left to right, Ctrl (Veh), iCKO (Veh), Ctrl (Bex), and iCKO (Bex). In FIGS. 2B and 2E, the two lines that reach the X-axis represent the iCKO populations. (FIGS. 2C and 2F) Body weights of Qk-iCKO mice and controls receiving daily oral administration of KD3010, Bex, or Veh for 4 weeks after tamoxifen injection. (FIGS. 2G and 2H) Representative electron micrographs and quantification of the percentage of myelinated axons and g-ratio of the optic nerves of the experimental mice after 5 weeks of treatment. Scale bars, 500 nm. (FIGS. 2I and 2J) Representative images and quantification of FluoroMyelin level in the corpus callosum tissues of experimental mice after 5 weeks of treatment. Scale bars, 50 μm. Data are mean±s.d.; one-way ANOVA with Fisher's LSD correction. *P<0.05; **P<0.01; ***P<0.001; ****P<0.0001. ns, not significant.
Therefore, whether PPARβ-RXRα agonists could alleviate lipid defect-induced demyelination and its related symptoms was tested.

Row | Compound | delayed-onset demyelination and myelin lipid reduction in the CC [1] | Qk-iCKO mice that lived for more than 100 days (Qk-iCKO mice) [%] | maximum survival duration increased (Qk-iCKO mice) [fold] | clinical scores (Qk-iCKO mice) | onset of neurological deficits (Qk-iCKO mice) | prolonged median survival times (Qk-iCKO mice) [fold] | body weights (Qk-iCKO mice) | higher myelin lipid levels (FluoroMyelin) than vehicle-treated Qk-iCKO mice (Qk-iCKO mice) [%] | myelin sheaths (g-ratio) (Qk-iCKO mice) | more myelinated axons than vehicle-treated Qk-iCKO mice (Qk-iCKO mice) [%] | other results
1 | O=c1[nH]cc(F)c(=O)[nH]1 [5-FU, 5-fluorouracil] | exhibited delayed-onset demyelination and myelin lipid reduction |  |  |  |  |  |  |  |  |  | changes in myelin protein levels and oligodendrocyte numbers ([1]; CC of 6-month mouse brains): minimal changes; Qki in the oligodendrocytes in the lesions ([1]; Olig2/Qki double staining, CC of 6-month mouse brains): greatly reduced; delayed-onset demyelination (Han et al., 2008) [2]: developed delayed-onset demyelination
2 | C[C@@H]1CN(c2ccc(OC(F)(F)F)cc2)C[C@H](C)N1S(=O)(=O)c1cccc2c1C[C@@H](C(=O)O)C2 [KD3010, (S)-4-[cis-2,6-dimethyl-4-(4-trifluoromethoxy-phenyl)piperazine-1-sulfonyl]-indan-2-carboxylic acid] |  | 23.1 | 3.72 | lowered | significantly delayed | 2.34 | increased | 119.4 | thicker | 115.3 | demyelination induced by 5-FU [3]: greatly alleviated; CNS permeability [4]: CNS-permeable
3 | C=C(c1ccc(C(=O)O)cc1)c1cc2c(cc1C)C(C)(C)CCC2(C)C [bexarotene] |  | 23.1 | 4.03 | lowered | significantly delayed | 1.41 | increased | 89.5 | thicker | 73.7 | 
4 | COc1cccc2c1C(=O)c1c(O)c3c(c(O)c1C2=O)C[C@@](O)(C(=O)CO)C[C@@H]3O[C@H]1C[C@H](N)[C@H](O)[C@H](C)O1 [doxorubicin] | exhibited delayed-onset demyelination and myelin lipid reduction |  |  |  |  |  |  |  |  |  | 
5 | CN(Cc1cnc2nc(N)nc(N)c2n1)c1ccc(C(=O)N[C@@H](CCC(=O)O)C(=O)O)cc1 [methotrexate] | exhibited delayed-onset demyelination and myelin lipid reduction |  |  |  |  |  |  |  |  |  | 
